According to US12503479B2, “Phospholipid-flavagline conjugates and methods of using the same for targeted cancer therapy” (Cellectar Biosciences, Inc., priority 2018, dated 2025):
Where two headings read alike, the source gives them in different places.

What was measured:
[1] = test system: Caki-2 tumor cells (human clear cell renal cell carcinoma); conditions: 5 μM, 24 hours at 37° C., co-culture with normal fibroblast
Experimental: (§1) Normal fibroblast and Caki-2 tumor cells (human clear cell renal cell carcinoma) were plated and co-cultured overnight (FIG. 1F). […] The next day cells were washed and co-stained with nucleus stain (Hoescht 33342). CLR 1501 was excited and then detected with an Alexa-Fluor 488 filter.

Normal fibroblast = conditions: 5 μM, 24 hours at 37° C., co-culture with Caki-2 tumor cells
Experimental: as §1

[2] = test system: PC3 (grade IV, human prostate adenocarcinoma) cell lines; conditions: 5 μM, 24 hours at 37° C.
Experimental: PC3 (grade IV, human prostate adenocarcinoma) cell lines were cultured overnight on micro slide VI (Ibidi, Verona, WI). […] The next day after washing with PBS, the cells were co-stained with nucleus stain (Hoechst 33342) and mitochondria marker (Mitotracker®) (Invitrogen, Carlsbad, CA). The cells were observed using Nikon A1R confocal microscope. CLR 1501 was excited and detected using Alexa-Fluor 488 filter, while nucleus stain and mitochondria stain were excited and detected using DAPI filter and Texas-Red filter, respectively.

Adrenal H-295 = conditions: SCID Mouse, Adenocarcinoma
Excerpt: (§2) Various cancer cell lines were exposed in vitro and in vivo to a fluorescently labelled PLE (CLR 1501, compound (1)).

Adrenal RL-251 = conditions: SCID Mouse, Adenocarcinoma
Excerpt: as §2

Breast 4T1 = conditions: Endogenous Mouse (orthotopic), Adenocarcinoma
Excerpt: as §2

Breast MCF-7 = conditions: Rat, Adenocarcinoma
Excerpt: as §2

Cervical = conditions: Endogenous Mouse, Adenocarcinoma
Excerpt: as §2

Colon CT-26 = conditions: SCID Mouse, Adenocarcinoma
Excerpt: as §2

Colon DLDI = conditions: SCID Mouse, Colorectal adenocarcinoma
Excerpt: as §2

Colon HT-29 = conditions: SCID Mouse, Colorectal adenocarcinoma
Excerpt: as §2

Colon LS-180 = conditions: Nude Mouse, Adenocarcinoma
Excerpt: as §2

Colon-51 = conditions: SCID Mouse, Colorectal adenocarcinoma
Excerpt: as §2

ColonLS180 = conditions: SCID Mouse, Colorectal adenocarcinoma
Excerpt: as §2

Esophageal = conditions: Endogenous Mouse, Adenocarcinoma
Excerpt: as §2

Glioma C6 = conditions: Rat xenograft
Excerpt: as §2

Glioma CNS1 = conditions: Rat xenograft
Excerpt: as §2

Glioma L9 = conditions: Rat xenograft
Excerpt: as §2

Glioma RG2 = conditions: Rat xenograft
Excerpt: as §2

Hepatocellular Carcinoma = conditions: Endogenous Mouse, Adenocarcinoma
Excerpt: as §2

Lung A-549 (NSCLC) = conditions: SCID Mouse, Adenocarcinoma
Excerpt: as §2

Lung NCI H-69 (Oat Cell) = conditions: SCID Mouse
Excerpt: as §2

Mammary AC = conditions: Apc^Min/+ mouse, Adenocarcinoma
Excerpt: as §2

Mammary SCC = conditions: Apc^Min/+ mouse, Squamous cell carcinoma
Excerpt: as §2

Melanoma A-375 = conditions: Nude Mouse
Excerpt: as §2

Melanoma = conditions: Mouse, Adenocarcinoma
Excerpt: as §2

Min Mouse Intestinal = conditions: Endogenous Mouse, Adenocarcinoma
Excerpt: as §2

Ovarian HTB-77 = conditions: Nude Mouse, Adenocarcinoma
Excerpt: as §2

Pancreatic BXPC3 = conditions: Nude Mouse, Adenocarcinoma
Excerpt: as §2

Pancreatic Capan-1 = conditions: Nude Mouse, Adenocarcinoma
Excerpt: as §2

Pancreatic Kras = conditions: Endogenous Mouse, Adenocarcinoma
Excerpt: as §2

Pancreatic c-myc = conditions: Endogenous Mouse, Adenocarcinoma
Excerpt: as §2

Prostate LnCap = conditions: Mouse, Adenocarcinoma
Excerpt: as §2

Prostate LuCap = conditions: Mouse, Adenocarcinoma
Excerpt: as §2

Prostate MatLyLu = conditions: Rat, Adenocarcinoma
Excerpt: as §2

Prostate PC-3 = conditions: SCID Mouse, Adenocarcinoma
Excerpt: as §2

Renal Cell ACHN = conditions: Nude Mouse (orthotopic), Adenocarcinoma
Excerpt: as §2

Renal Cell Caki-2 = conditions: Nude Mouse (orthotopic), Adenocarcinoma
Excerpt: as §2

Retinoblastoma = conditions: Endogenous Mouse, Blastoma
Excerpt: as §2

SCC1 = conditions: Nude Mouse, Squamous cell carcinoma
Excerpt: as §2

SCC6 = conditions: Nude Mouse
Excerpt: as §2

Sarcoma (Meth-A) = conditions: Nude Mouse, Fibrosarcoma
Excerpt: as §2

TRAMP prostate = conditions: Endogenous Mouse, Adenocarcinoma
Excerpt: as §2

[3] = test system: Various cancer cell lines; conditions: in vitro and in vivo; uptake measured continuously for 24 hours
Excerpt: as §2

Walker-256 = conditions: Rat, Carcinosarcoma
Excerpt: as §2

[4] = test system: cancer stem cells, normal brain tissue, and normal stem cells; conditions: FIG. 7
Excerpt: as §2

myeloma cell lines = conditions: FIG. 6
Excerpt: as §2

A549 cells = A549 cells treated with methyl b-cyclodextrin compared to untreated cells; 5 μμM, 24 hours
benign tissues = conditions: in vivo
[5] = test system: A549 (human lung adenocarcinoma) cells; experiment: Cytotoxicity of parent compound versus PDC, tumor cells (Example 8); format: cell-based; conditions: increasing concentrations; FIG. 3
Experimental: A549 (human lung adenocarcinoma) cells and normal human dermal fibroblasts (NHDF) were plated in 96 well dishes overnight. […] The difference between the cytotoxicity of the PDC molecule for tumor cells and that of the normal cells may have indicated a potential to improve the parent molecules therapeutic index.

[6] = test system: A375 (human malignant melanoma); experiment: IC50 in cell lines: A375; format: cell-based; conditions: A-375, read-out: IC50, A375
[7] = test system: A549 (human lung adenocarcinoma); experiment: cells; format: cell-based; conditions: Homo sapiens, A549, read-out: IC50, A549
[8] = test system: HCT 116 (human colon cancer); experiment: IC50 in cell lines: HCT 116; format: cell-based; conditions: HCT-116, read-out: IC50, HCT 116
[9] = test system: NHDF (normal human dermal fibroblasts); experiment: cells; format: cell-based
[10] = format: in vivo, mice
Experimental: Listed in Table 5 are the doses administered to the mice, and how many mice were alive after treatment (“3/3” indicates 3 out of 3 mice were alive). […] MTD for CLR 1865 was between 5 and 10 mg/kg.

A375 and A549 cells = experiment: Levels of FLV3 in cell lysate and growth media (LC/MS); format: cell-based, human
Experimental: FIG. 11 is a graph of concentration versus time for FLV3 detected in the cytosol (normalized to the cytosolic volume) in A375 (human melanoma) and A549 (human lung adenocarcinoma) cell lines.
The levels of FLV3 in cell lysate and growth media were measured using LC/MS. […] Levels of intracellular FLV3 appeared to plateau at 24 hours, while extracellular levels of FLV3 continued to increase.

Intestinal Polyp = experiment: Uptake in benign tissues: Intestinal Polyp; format: in vivo; conditions: Endogenous Mouse, Adenoma (benign)
[11] = test system: Mammary alveolar hyperplasia; experiment: Uptake in benign tissues: Mammary alveolar hyperplasia; format: in vivo; conditions: Endogenous Mouse

C[N+](C)(C)CCOP(=O)([O-])OCCCCCCCCCCCCCCCCCCc1ccc(C2=C3C=CC=[N+]3[B-](F)(F)n3cccc32)cc1 [CLR 1501]
Localization in Caki-2 cells [1]: highly localized
Localization in normal fibroblast cells (Normal fibroblast): minimally
Co-localization with mitochondria [2]: co-localized with mitochondria
Tumor Uptake (Adrenal H-295): Yes
Tumor Uptake (Adrenal RL-251): Yes
Tumor Uptake (Breast 4T1): Yes
Tumor Uptake (Breast MCF-7): Yes
Tumor Uptake (Cervical): Yes
Tumor Uptake (Colon CT-26): Yes
Tumor Uptake (Colon DLDI): Yes
Tumor Uptake (Colon HT-29): Yes
Tumor Uptake (Colon LS-180): Yes
Tumor Uptake (Colon-51): Yes
Tumor Uptake (ColonLS180): Yes
Tumor Uptake (Esophageal): Yes
Tumor Uptake (Glioma C6): Yes
Tumor Uptake (Glioma CNS1): Yes
Tumor Uptake (Glioma L9): Yes
Tumor Uptake (Glioma RG2): Yes
Tumor Uptake (Hepatocellular Carcinoma): Yes
Tumor Uptake (Lung A-549 (NSCLC)): Yes
Tumor Uptake (Lung NCI H-69 (Oat Cell)): Yes
Tumor Uptake (Mammary AC): Yes
Tumor Uptake (Mammary SCC): Yes
Tumor Uptake (Melanoma A-375): Yes
Tumor Uptake (Melanoma): Yes
Tumor Uptake (Min Mouse Intestinal): Yes
Tumor Uptake (Ovarian HTB-77): Yes
Tumor Uptake (Pancreatic BXPC3): Yes
Tumor Uptake (Pancreatic Capan-1): Yes
Tumor Uptake (Pancreatic Kras): Yes
Tumor Uptake (Pancreatic c-myc): Yes
Tumor Uptake (Prostate LnCap): Yes
Tumor Uptake (Prostate LuCap): Yes
Tumor Uptake (Prostate MatLyLu): Yes
Tumor Uptake (Prostate PC-3): Yes
Tumor Uptake (Renal Cell ACHN): Yes
Tumor Uptake (Renal Cell Caki-2): Yes
Tumor Uptake (Retinoblastoma): Yes
Tumor Uptake (SCC1): Yes
Tumor Uptake (SCC6): Yes
Tumor Uptake (Sarcoma (Meth-A)): Yes
Tumor Uptake (TRAMP prostate): Yes
Specificity for tumors and cancer cells [3]: specific for tumors and cancer cells
Tumor Uptake (Walker-256): Yes
Uptake into cancer cells versus normal brain tissue and normal stem cells [4]: specific uptake
Uptake, myeloma cell lines (myeloma cell lines): uptake
Reduction in uptake after disruption of lipid rafts (A549 cells): 60%
Uptake in benign tissues (benign tissues): no uptake was observed

COC(=O)[C@@H]1[C@H](O)[C@]2(O)c3c(OC)cc(OCCCCN)cc3O[C@]2(c2ccc(OC)cc2)[C@H]1c1ccccc1 [FLV3, reference compound]
Cytotoxic potency to A549 cells versus NHDF cells (selectivity) [5]: near equal potency to the A549 cells as it did to the NHDF cells
IC50 [6]: 15 nM
IC50 [7]: 90 nM
IC50 [8]: 9 nM
IC50 ([9]; Homo sapiens, NHDF, read-out: IC50, NHDF): 8 nM
Therapeutic Index (TI) ([9]; not defined, equals NHDF IC50 over lowest tumor line IC50): 0.89
Mice alive after treatment ([10]; Dose 0.1 mg/kg): 3/3
Mice alive after treatment ([10]; Dose 0.25 mg/kg): 3/3
Time at which levels of intracellular FLV3 plateau (A375 and A549 cells): 24 h
Levels of FLV3 in the growth media (A375 and A549 cells; after 24 hours): Moderate levels
Levels of FLV3 in the cell lysate (A375 and A549 cells; after 24 hours, FIG. 11): high levels

C[N+](C)(C)CCOP(=O)([O-])OCCCCCCCCCCCCCCCCCCc1ccc(I)cc1 [CLR1404]
Tumor Uptake (Intestinal Polyp): No
Tumor Uptake [11]: No
